Consider 52 molecules from PubChem BioAssay AID1996.

Values after ≈ are worked out from the molar mass of the structure shown.

The conditions of this series: buffer; pH 7.4; 200.0 µM.
In general, kinetic solubility refers to solubility judged after dilution from a stock solution rather than from solid. The molecule `COc1ccc(C(=O)NC2CCCc3ccccc32)cc1` (configuration not stated) returned a kinetic solubility of 6.5 µg/mL (≈ 23.1 µM).
On to `CC(NC(=O)CNC(=O)C1CCCCC1)c1cccc(Cl)c1` (configuration not stated), for which the kinetic solubility is 42.6 µg/mL (≈ 132 µM).
As for `CC(=O)NC(c1ccc2ccccc2c1)c1ccc2cccnc2c1O` (configuration not stated), the kinetic solubility came out at 1.2 µg/mL (≈ 3.5 µM).
In turn, `CC1CC(C)CN(C(=O)COC(=O)c2ccc([N+](=O)[O-])o2)C1` (configuration not stated) had a solubility (kinetic) of more than 46.5 µg/mL.
The result for `Cc1ccccc1NCN1C(=O)C2CCC(C)(C1=O)C2(C)C` (configuration not stated) reads 30.6 µg/mL (≈ 102 µM); that for `Cc1ccc(S(=O)(=O)NCc2ccccn2)c(C)c1C`, 43.2 µg/mL (≈ 149 µM).
As for `Cc1cc(NC(=O)CSc2nc(C)c(C)n2CC(C)C)no1`, the kinetic solubility is more than 48.4 µg/mL.
The result for `CCOc1ccc(/C=N/N2C(C)CCCC2C)cc1OC` (configuration not stated) reads more than 43.6 µg/mL; that for `COc1ccccc1NC(=O)NCc1ccc(C)n1C`, 19.9 µg/mL (≈ 72.8 µM); that for `COc1ccc2c(CCNC(N)=S)c[nH]c2c1`, 17.7 µg/mL (≈ 71 µM).
For `Cn1c(=O)c2c(ncn2CC(O)CNc2ccc(F)cc2)n(C)c1=O` (configuration not stated), the solubility (kinetic) was more than 52.1 µg/mL.
The result for `CC(=O)Nc1cccc(NC=C(C#N)C#N)c1` reads 11.7 µg/mL (≈ 51.7 µM).
The molecule `CC1=CC(C)(C)N(C(=O)CN2C(=O)CCC2=O)c2ccc(C)cc21` had a solubility (kinetic) of more than 49 µg/mL.
As to `COCC(=O)Nc1ccc(S(=O)(=O)NCC2CCCO2)cc1` (configuration not stated), the solubility (kinetic) was more than 49.3 µg/mL.
The same measure for `CCCn1c2ccccc2c2cnn(CC(=O)O)c(=O)c21`: more than 42.8 µg/mL.
Regarding `Cc1ccc(COC(=O)c2ccc3ccccc3n2)cc1`, the solubility (kinetic) was found to be 7.6 µg/mL (≈ 27.4 µM).
The same measure for `COc1ccccc1C(=O)COC(=O)c1ccc(Cl)nc1`: 44.6 µg/mL (≈ 146 µM); for `CC(C)CCn1c(=O)c(C(=O)NCc2ccco2)c(O)c2ccccc21`: less than 0.4 µg/mL; for `O=C(Nc1ccc2ccccc2c1)c1ccc(Cl)cc1`: less than 0.6 µg/mL.
On to `CC(C)NC(=O)CN1C(=O)c2cccc3cccc1c23`, for which the kinetic solubility was 9.8 µg/mL (≈ 36.5 µM).
The same measure for `O=S(N1CCc2ccccc21)C12CC3CC(CC(C3)C1)C2` (configuration not stated): 4.4 µg/mL (≈ 14.6 µM).
For `CCC(C)(C(=O)NC1CCCC1)N(C)C(=O)c1ccccn1` (configuration not stated), the solubility (kinetic) was more than 45.5 µg/mL.
Consider `CCOc1ccc(Br)cc1CNCc1cccnc1`, for which the solubility (kinetic) was more than 48.2 µg/mL.
`CCCCNC(=O)C1CCCN(S(=O)(=O)CC)C1` (configuration not stated): the solubility (kinetic) was more than 41.5 µg/mL.
In turn, `Cc1nc2ccc(-c3nc4ccc(N)cc4[nH]3)cc2[nH]1` returned a solubility (kinetic) of 39.4 µg/mL (≈ 150 µM).
The molecule `O=C1CCC(=O)N1CCSC(=S)N1CCSCC1` gave a solubility (kinetic) of more than 45.7 µg/mL.
The result for `Nn1c(SCC(=O)NCC2CCCO2)nnc1-c1ccco1` (configuration not stated) reads more than 48.5 µg/mL; that for `CCCCN(C1CCS(=O)(=O)C1)S(=O)(=O)c1ccc(C(C)C)cc1` (configuration not stated), 1.9 µg/mL (≈ 5.09 µM).
For the molecule `OC(CCN1CCOCC1)c1ccccc1` (configuration not stated), the solubility (kinetic) stood at 31.3 µg/mL (≈ 141 µM).
The molecule `O=C(Cc1ccc(Br)cc1)Nc1ccccc1N1CCCC1` registered a solubility (kinetic) of 2.6 µg/mL (≈ 7.24 µM).
`CC(=O)c1ccc(NC(=O)CCNC(=O)c2ccccc2Cl)cc1` yielded a kinetic solubility of 48.8 µg/mL (≈ 142 µM).
Take `O=[N+]([O-])c1ccc(SCc2ccco2)cc1N1CCOCC1`: the solubility (kinetic) was determined as 13.2 µg/mL (≈ 41.2 µM).
The result for `Cc1ccsc1/C=C1\SC(=S)N(CC2CCCO2)C1=O` (configuration not stated) reads less than 0.7 µg/mL; that for `Cn1c(N)c(N2CCCCC2)c(=O)n(CC(=O)Nc2cccc(C#N)c2)c1=O`, more than 57.4 µg/mL; that for `CC(=O)Nc1ccc(S(=O)(=O)Nc2nc3ccccc3nc2N2CCOCC2)cc1`, more than 64.1 µg/mL.
`CNC(=O)c1[nH]cnc1C(=O)Nc1ccccn1` registered a solubility (kinetic) of more than 36.8 µg/mL.
Take `CC(CCc1ccccc1)NC(=O)CCc1cn(C)c2ccccc12` (configuration not stated): the solubility (kinetic) was found to be 6.2 µg/mL (≈ 18.5 µM).
The same measure for `CC(=O)Nc1c(-c2ccccc2Cl)c(=O)c2ccccc2n1C`: more than 49 µg/mL; for `CC(=O)Nc1ccc(-c2nc3ccc(NC(C)=O)cc3o2)cc1`: 2.2 µg/mL (≈ 7.11 µM).
The result for `Cc1ccccc1Nc1nc(-c2cccnc2)cs1` reads 11.2 µg/mL (≈ 41.9 µM); that for `Cc1ccc(NC(=O)Nc2cccnc2)cc1Cl`, 23.3 µg/mL (≈ 89 µM).
The molecule `O=[N+]([O-])c1ccc(NCc2ccccc2N2CCC(CO)CC2)nc1` gave a kinetic solubility of 12.4 µg/mL (≈ 36.2 µM).
The same measure for `CC(C)CN1C(=O)C(=O)N(CC(=O)c2ccc3c(c2)CCCC3)C1=O`: 47.2 µg/mL (≈ 138 µM); for `CCCN1CCC(NC(=O)C2CCN(C(C)=O)CC2)CC1`: more than 44.3 µg/mL.
For `COC(=O)[C@@H](C)NC(=O)c1ccc2oc(CCc3ccccc3)nc2c1`, the kinetic solubility was found to be 41 µg/mL (≈ 116 µM).
`COc1ccccc1CC(=O)Nc1cccc(C(=O)Nc2nccs2)c1` registered a kinetic solubility of 0.7 µg/mL (≈ 1.91 µM).
For `COc1ccc2c(c1)c(CC(=O)OCC(=O)O)c(C)n2C(=O)c1ccc(Cl)cc1`, the solubility (kinetic) is more than 62.4 µg/mL.
As to `CCn1c(C)c(C)c2cc(C(=O)NC3CCCCCC3)ccc21`, the kinetic solubility turned out to be 0.5 µg/mL (≈ 1.6 µM).
With `Cc1cc(C)c(NC(=O)Nc2ccccc2)c(C)n1`, the kinetic solubility was determined as 34.3 µg/mL (≈ 134 µM).
Molecule `N=c1oc2ccc3ccccc3c2cc1C(N)=S` came in with a kinetic solubility of 7.2 µg/mL (≈ 28.3 µM).
In turn, `Cc1ccc(NC(=S)NC(=O)C2CCCC2)c(Br)c1` had a solubility (kinetic) of 4.2 µg/mL (≈ 12.3 µM).
As to `Cc1nc2ccc(Br)cc2c2c1CC(CBr)O2` (configuration not stated), the solubility (kinetic) was 2.2 µg/mL (≈ 6.16 µM).
